Source: patent US8835617B2, “Polynucleotides encoding a human TRIM-Cyp fusion polypeptide, compositions thereof, and methods of using same” (priority 2008, dated 2014)
Entries after “also recorded” stand apart in the source; their conditions may differ.

Assays:
[1] = system: V86P/H87Q/I91V/M96I HIV-1; experiment: V86P/H87Q/I91V/M96I HIV-1 CA variant vector challenge; format: cell-based
Source text: Most HIV-1 plasmids and vectors have been described previously (Berthoux et al., 2004). pNL4-3 contains a complete infectious HIV-1 provirus. pNL4-3-R5 bears the V3 loop of the CCR5-tropic 92TH014-2 HIV-1 strain (Papkalla et al., 2002). To generate pNL4-3-GFP-IRES-Nef, enhanced green fluorescent protein (eGFP) and the ECMV (encephalomyocarditis virus) IRES (internal ribosome entry site) were inserted upstream of nef pNLΔenvGFP is pNL4-3 with an env-inactivating mutation and eGFP in place of nef. CSGW is an HIV-1 vector expressing eGFP under the control of the spleen focus forming virus (SFFV) promoter. pFUPI, was engineered from pFUW (Lois et al., 2002) and uses the ubiquitin promoter to drive expression of a puromycin resistance cassette followed by ECMV IRES-T5. pAIG uses the SFFV promoter to drive expression of T5 followed by IRES-eGFP. In pscALPS, the SFFV promoter drives expression of T5 and the human CypA promoter drives expression of eGFP. For three-component vector production, HIV-1 gag and pol were expressed using either psPAX2, p8.9NΔSB, p8.9NΔSB-G89V, or p8.9NΔSB-V86P/H87Q/I91V/M96I. p8.9NΔSB-V86P/H87Q/I91V/M96I is p8.9NΔSB with the V86P/H87Q/I91V/M96I mutation (Chatterji et al., 2005) introduced in CA. […] For biochemistry, hT5Cyps were cloned into the p3xFLAG-CMV-7.1 expression vector (Sigma) and HIV-1 CA was expressed as a GST-fusion using the EF1α promoter.

SIVMAC251 = SIVMAC251 GFP vector challenge of CRFK cells expressing T5 proteins; format: cell-based; conditions: in words
Source text: (§1) Most HIV-1 plasmids and vectors have been described previously (Berthoux et al., 2004). pNL4-3 contains a complete infectious HIV-1 provirus. pNL4-3-R5 bears the V3 loop of the CCR5-tropic 92TH014-2 HIV-1 strain (Papkalla et al., 2002). To generate pNL4-3-GFP-IRES-Nef, enhanced green fluorescent protein (eGFP) and the ECMV (encephalomyocarditis virus) IRES (internal ribosome entry site) were inserted upstream of nef pNLΔenvGFP is pNL4-3 with an env-inactivating mutation and eGFP in place of nef. […] For biochemistry, hT5Cyps were cloned into the p3xFLAG-CMV-7.1 expression vector (Sigma) and HIV-1 CA was expressed as a GST-fusion using the EF1α promoter.
(§2) 2×10^4 adherent cells/well or 8×10^4 suspension cells/well were plated in 48-well plates (Nunc) for challenge with single-cycle GFP reporter vectors that were titered as indicated. GFP synthesis was assessed by flow cytometry 48 hrs post-infection. […] For infection of 10^6 primary CD4^+ T cells or macrophages, 15 ng p24/10^6 cells of a CXCR4- or CCR5-tropic HIV-1NL4-3 stock was used, and infection was monitored by assessing the accumulation of RT activity in the supernatant (Sayah et al., 2004). FACSCalibur, Cellquest Pro (Becton Dickinson), and FlowJo software (Treestar, Inc.) were used to record and analyze fluorescence. […]

HIV-1 = system: HIV-1
Experimental: CRFK, feline kidney fibroblast cells, lack endogenous T5 and are commonly used in the field as they have large T5-restriction phenotypes in single-cycle assays.
(§3) 2×10^4 adherent cells/well or 8×10^4 suspension cells/well were plated in 48-well plates (Nunc) for challenge with single-cycle GFP reporter vectors that were titered as indicated. GFP synthesis was assessed by flow cytometry 48 hrs post-infection. For spreading infection, 10^6 Jurkat cells were infected with 1 to 15 ng p24/10^6 cells of HIV-1NL4-3-GFP-IRES-Nef. Cells were split every 3 days, fixed in 0.5% paraformaldehyde/PBS, and assayed for GFP synthesis by flow cytometry. For infection of 10^6 primary CD4^+ T cells or macrophages, 15 ng p24/10^6 cells of a CXCR4- or CCR5-tropic HIV-1NL4-3 stock was used, and infection was monitored by assessing the accumulation of RT activity in the supernatant (Sayah et al., 2004). FACSCalibur, Cellquest Pro (Becton Dickinson), and FlowJo software (Treestar, Inc.) were used to record and analyze fluorescence. 1-5×10^5 events were acquired for analysis.
as §3, with “cytometry.” for “cytometry. For infection of”, “or macrophages were infected with” for “or macrophages,”, “of CXCR4” for “of a CXCR4-”, “HIV-1NL4-3 stocks, or with low passage, primary isolates HIV-1DH12” for “HIV-1NL4-3 stock was used,”, “and HIV-1132W, (Olivier Schwartz, Pasteur Institute, Paris). Infection” for “and infection”, “supernatant (7).” for “supernatant (Sayah et al., 2004).”

FIVPET = FIVPET GFP vector challenge of CRFK cells expressing T5 proteins; format: cell-based; conditions: in words
Source text: as §1, §2

HIV-1NL4-3-GFP-IRES-Nef = experiment: Spreading infection of Jurkat T cells with replication-competent HIV-1; format: cell-based; conditions: for HIV-1 replication in spreading infection: in words, Jurkat, up to two months; for isolation of resistant HIV-1: wide range of inocula
Experimental: Jurkat T cells stably transduced with T5-expression vectors were infected with replication-competent HIV-1NL4-3-GFP-IRES-Nef.
as §3
as §3, with “cytometry.” for “cytometry. For infection of”, “or macrophages were infected with” for “or macrophages,”, “of CXCR4” for “of a CXCR4-”, “HIV-1NL4-3 stocks, or with low passage, primary isolates HIV-1DH12” for “HIV-1NL4-3 stock was used,”, “and HIV-1132W, (Olivier Schwartz, Pasteur Institute, Paris). Infection” for “and infection”, “supernatant (7).” for “supernatant (Sayah et al., 2004).”

HIV-1NL4-3-IRES-GFP-Nef = experiment: Single-cycle cell-to-cell spreading assay, 293T donors and Jurkat targets; format: cell-based; conditions: protein expressed in 293T donor cells, 2 hours co-culture
Source text: The mechanism underlying these observations has not yet been determined. […] This would implicate T5-mediated restriction both at post-entry and at a much later step in the viral life cycle (Sakuma et al., 2007; Zhang et al., 2008a). […] To assess the effects of donor and target cell T5Cyp on cell-to-cell spread of HIV-1, a single-cycle cell-to-cell spreading assay for HIV-1 infection was designed. 293T donor cell lines expressing control or indicated T5Cyp were transfected with HIV-1NL4-3-IRES-GFP-Nef provirus and supernatant was harvest during the first 48 hours to measure production of virus by RT activity. […] At the indicated time points dextran sulfate was added to the co-culture to block further infection and cells were harvested. 48 hours later the percentage of infected target Jurkat T cells was measured by flow cytometry (FIG. 53A). The magnitude of HIV-1 restriction in single cycle assays using cell-free virus is shown for recipient Jurkat T cell lines and donor 293 T cell lines is shown (FIG. 53B).

HIV-2ROD = HIV-2ROD GFP vector challenge of CRFK cells expressing T5 proteins; format: cell-based; conditions: in words
Source text: as §1, §2

| Substance | block of V86P/H87Q/I91V/M96I HIV-1 [1] | restriction of SIVMAC251 (SIVMAC251) | potency relative to hT5αR323-332 and hT5αR332P (HIV-1; CRFK cells) [fold] | restriction of HIV-1 relative to rhT5α (HIV-1; CRFK cells) [fold] | restriction of FIVPET (FIVPET) | HIV-1 replication in spreading infection (HIV-1NL4-3-GFP-IRES-Nef) | isolation of resistant HIV-1 (HIV-1NL4-3-GFP-IRES-Nef) | infection of control target cells lower than with empty vector donors (HIV-1NL4-3-IRES-GFP-Nef) [fold] | restriction of HIV-2ROD (HIV-2ROD) | block of HIV-1 infection relative to hT5Cyp (HIV-1; CRFK cells, low multiplicities of infection) | HIV-1 restriction activity (HIV-1; in words, CRFK cells) | inhibition of HIV-1 (HIV-1; single-cycle infection of CRFK cells) [fold] |
| --- | --- | --- | --- | --- | --- | --- | --- | --- | --- | --- | --- | --- |
| hT5Cyp: human TRIM5α fused at serine 322 to human cyclophilin A, SEQ ID NO:12 | blocked infection by viruses bearing this sequence as efficiently as they block standard HIV-1 clones | neither AoT5Cyp nor hT5Cyp can restrict this virus | ~10 | ~10 | blocked comparably | No HIV-1 replication was detected; also recorded: significantly greater anti-HIV-1 activity than a chimeric human/rhesus monkey TRIM5α; also recorded: HIV-1 replication was not detected; also recorded: superior anti-HIV-1 activity | could not be isolated | 10 | blocked comparably | – | – | – |
| AoT5Cyp: Aotus (owl monkey) TRIM5-cyclophilin A fusion protein [reference compound] | blocked infection by viruses bearing this sequence as efficiently as they block standard HIV-1 clones | neither AoT5Cyp nor hT5Cyp can restrict this virus | – | – | blocked comparably | No HIV-1 replication was detected; also recorded: HIV-1 replication was not detected | could not be isolated | 3 | blocked comparably | about 10 fold | restricted all four lentiviruses | ~1000 |
